Measurements: patent EP0152542A1, “Pyrrol-3-carboxylic acids having central analgesic activity” (POLI INDUSTRIA CHIMICA S.p.A., priority 1983, dated 1985)
Like-named read-outs stand apart in the source and are kept apart here.

Columns and labels:
[1] = Acute toxicity per os in the rat (LD50 at the 14th observation day); conditions: in vivo, po
Protocol: (§1) The analgesic activity of the compounds of for mula I, administered by the oral route has been determined by means of the following tests: • - Phenylquinone test in mice (Hendershot and Forsa ith - J. Pharmacol. Exp. Ther. 123, 237 (1959)) • - Hot plate test - Male albino mice, treated with increasing doses of the compound under test, are placed on a thermostatized plate at 55°C. The time necessary for the mouse to react to the painful stimulus is then measured. An effective dose 50 (ED50) is defined as the dose inducing a 50% increase of the reaction time, with respect to control animals. • - The acute toxicity per os has been studied in the mouse and in the rat and expressed as LD50 at the 14th observation day.

Male albino mice = assay: Hot plate test (thermostatized plate at 55°C, reaction time to painful stimulus); format: in vivo; conditions: Mus musculus
[2] = Acute toxicity per os in the mouse (LD50 at the 14th observation day); conditions: in vivo, po
Protocol: as §1

mice = assay: Phenylquinone test in mice (analgesic activity); format: in vivo; conditions: Mus musculus
Protocol: as §1

[3] = tested on: cyclooxygenase and the prostaglandinsynthetase; conditions: known compound, background statement; cited from earlier work
[4] = sc, S.C., ED50 = dose inducing a 50% increase of the reaction time versus controls, plate at 55°C, read-out: HOT PLATE ED50 S.C. MICE
[5] = mice, oral, read-out: PHENYLQUINONE ED50 OS

| SMILES | LD50 at 336 h [1] [mg/kg] | ED50 (Male albino mice; [4]) [mg/kg] | LD50 at 336 h ([2]; read-out: LD50 MICE OS) [mg/kg] | ED50 (mice; [5]) [mg/kg] | LD50 at 336 h ([1]; per os, 14th observation day) [mg/kg] | LD50 at 336 h ([2]; mice, per os, 14th observation day, read-out: LD50 MICE OS) [mg/kg] | ED50 (Male albino mice; comparison compound, route not given, read-out: ED50 hot plate) [mg/kg] | LD50 at 336 h ([2]; comparison compound, per os, read-out: LD50 mouse per os) [mg/kg] | ED50 (mice; po, read-out: ED50 phenylquinone) [mg/kg] | inhibits the cyclooxygenase and the prostaglandinesynthetase [3] |
| --- | --- | --- | --- | --- | --- | --- | --- | --- | --- | --- |
| Cc1ccc(C(=O)c2c(C)c(C(=O)O)c(C)n2C)cc1 [R=CH3, R1=CH3, R2=H, R3=H] | > 1600 | > 10 | 1400 | 10 | – | – | – | – | – | – |
| Cc1c(C(=O)O)c(C)n(C)c1C(=O)c1ccc(Cl)cc1Cl [R=CH3, R1=Cl, R2=H, R3=Cl, 1,2,4-Trimethyl-5-(2,4-dichlorobenzoyl)-pyrrol-3-carboxylic acid] | – | 5.7 | – | 10.9 | 1700 | 1400 | – | – | – | – |
| COc1ccc2c3c1O[C@H]1[C@@H](O)C=C[C@H]4[C@@H](C2)N(C)CC[C@@]341.Cl [codeine hydrochloride, reference compound] | – | – | – | – | – | – | 25 | 300 | 5.6 | – |
| Cc1c(C(=O)O)c(C)n(C)c1C(=O)c1ccc(Cl)cc1 [R=CH3, R1=Cl, R2=H, R3=H, reference compound] | > 1600 | 2.3 | 800 | 4.6 | – | – | – | – | – | – |
| Cc1c(C(=O)O)c(C)n(C)c1C(=O)c1ccc(Cl)c(Cl)c1 [R=CH3, R1=Cl, R2=Cl, R3=H] | > 1600 | 4.7 | 800 | 7.5 | – | – | – | – | – | – |
| COc1ccc(C(=O)c2c(C)c(C(=O)O)c(C)n2C)cc1 [R=CH3, R1=OCH3, R2=H, R3=H] | > 1600 | 7.6 | > 1600 | 8.4 | – | – | – | – | – | – |
| Cc1cc(CC(=O)O)n(C)c1C(=O)c1ccc(Cl)cc1 [Zomepirac, 5-(p-chlorobenzoyl)-1,4-dimethyl-pyrrol-2-acetic acid] | – | – | – | – | – | – | – | – | – | inhibits |
| Cc1c(C(=O)O)c(C)n(Cc2ccccc2)c1C(=O)c1ccc(Cl)cc1 | > 1600 | 4.8 | 1500 | 7.6 | – | – | – | – | – | – |
| Cc1c(C(=O)O)c(C)n(Cc2ccccc2Cl)c1C(=O)c1ccc(Cl)cc1 | > 1600 | 5.5 | 1200 | 10.8 | – | – | – | – | – | – |
| CCCCn1c(C)c(C(=O)O)c(C)c1C(=O)c1ccc(Cl)cc1 [R=C4H9, R1=Cl, R2=H, R3=H] | > 1600 | 2.9 | 1300 | 6.3 | – | – | – | – | – | – |
